Measured values published in patent publication US8785471B2, “Pharmaceutical composition containing ferulic acid and matrine compounds, the preparation and the use thereof” (Qingdao Qiyuan Bio-Technologies Co., Ltd., priority 2008, dated 2014).
Marks after values point to notes of the source that are not given here.

Assays:
[1] = system: AChE activity in cortex tissue and blood; details: model rats, intragastric 50 μg/kg, 7 days; mean ± SD
Procedure: Animal grouping, modeling and administration: 57 female Wistar rats (15 month old, 300-450 g, from animal center of Qingdao Institute for Drug Control, fed under normal conditions and natural light with unlimited drink and food) were randomly separated into 6 groups. Rats in normal control group were intraperitoneal injected with physiological saline for 6 weeks and injected physiological saline into the meynert nucleus basalis. Rats in modeling control group were injected intraperitoneally with D-galactose (48 mg/kg/d) for 6 weeks and injected with ibotenic acid into the meynert nucleus basalis. […] The rats in the normal and modeling control groups were intragastrically administrated with physiological saline for consecutive 7 days. 1 hour after the last administration, the learning ability of all the rats; was evaluated. Then, the rats were anesthetized with Pentobarbital. 5 ml blood was collected from abdominal aorta. Immediately the cortex tissue was collected and homogenated with physiological saline into 10% (WN). The AChE activity in cortex tissue and blood was measured according to the reagent kit instructions. • 3. […] The shocked times (mistakes) within 5 minutes were recorded as a reference for the learning ability of the rats. […] The latency time for the first jump was recorded as a reference for the memory ability. The shocked times (mistakes) within 5 minutes were also recorded. […]

[2] = system: rats; test: Alzheimer's disease model rats, learning and memorizing ability in jumping tests; assay type: in vivo; details: intragastric 50 μg/kg, 7 days, mean ± SD
Procedure: Animal grouping, modeling and administration: 57 female Wistar rats (15 month old, 300-450 g, from animal center of Qingdao Institute for Drug Control, fed under normal conditions and natural light with unlimited drink and food) were randomly separated into 6 groups. Rats in normal control group were intraperitoneal injected with physiological saline for 6 weeks and injected physiological saline into the meynert nucleus basalis. Rats in modeling control group were injected intraperitoneally with D-galactose (48 mg/kg/d) for 6 weeks and injected with ibotenic acid into the meynert nucleus basalis. […] The rats in the normal and modeling control groups were intragastrically administrated with physiological saline for consecutive 7 days. 1 hour after the last administration, the learning ability of all the rats; was evaluated. Then, the rats were anesthetized with Pentobarbital. 5 ml blood was collected from abdominal aorta. Immediately the cortex tissue was collected and homogenated with physiological saline into 10% (WN). The AChE activity in cortex tissue and blood was measured according to the reagent kit instructions. • 3. Measurement: testing the memory ability of rats: the rats were placed in an electric box with an escaping platform for 3 minutes to get used to the new environments. The box was then connected to 50V AC. Upon being shocked, the rats can escape the electricity by jumping onto the platform. The shocked times (mistakes) within 5 minutes were recorded as a reference for the learning ability of the rats. After 24 hours, the rats were placed directly on the platform. The latency time for the first jump was recorded as a reference for the memory ability. The shocked times (mistakes) within 5 minutes were also recorded. The latency time of over 5 minutes was considered as 5 minutes.
T testing method was used to evaluate the difference within different groups, and the difference was statistically significant when P<0.05. • 4. […] P represents statistic difference. *P<0.05 means statistically obvious difference, **P<0.01 statistically significant difference.

`C/C=C1\[C@H]2C=C(C)C[C@]1(N)c1ccc(=O)[nH]c1C2` [Huperzine A, huperzine A] was tested, and the “Blood TchE” value [1] was 48 ± 35* mmol/L, the “Cortex TchE” value [1] was 2.0 ± 0.6* μmol/g and the Latency ([2]; after 24 hours) was 135 ± 55* s. For the same compound, the “Mistakes within 5 min” value [2] was 4 ± 2.3* and the “Mistakes within 5 min after 24 hours” value [2] was 2 ± 1.6*.
